Results as given in US12161722B2, “Bifunctional heterocyclic compound having BTK degradation function via ubiquitin proteasome pathway, and use thereof” (KOREA RESEARCH INSTITUTE OF CHEMICAL TECHNOLOGY, priority 2021, dated 2024).

How the values were obtained:
WT BTK protein = target: T1, WT BTK protein (Homo sapiens, UniProt Q06187); assay: BTK protein degradation assay (Western blotting), WT BTK; type: cell-based; details: concentration range accounting for 50% degradation of WT BTK protein, TMD-8 or RAMOS cells, 24 hours
T1 construct: measured for intracellular BTK protein levels by Western blotting; endogenous in cells; host or cells: TMD-8 or RAMOS cells
T1 sequence (Q06187 whole entry): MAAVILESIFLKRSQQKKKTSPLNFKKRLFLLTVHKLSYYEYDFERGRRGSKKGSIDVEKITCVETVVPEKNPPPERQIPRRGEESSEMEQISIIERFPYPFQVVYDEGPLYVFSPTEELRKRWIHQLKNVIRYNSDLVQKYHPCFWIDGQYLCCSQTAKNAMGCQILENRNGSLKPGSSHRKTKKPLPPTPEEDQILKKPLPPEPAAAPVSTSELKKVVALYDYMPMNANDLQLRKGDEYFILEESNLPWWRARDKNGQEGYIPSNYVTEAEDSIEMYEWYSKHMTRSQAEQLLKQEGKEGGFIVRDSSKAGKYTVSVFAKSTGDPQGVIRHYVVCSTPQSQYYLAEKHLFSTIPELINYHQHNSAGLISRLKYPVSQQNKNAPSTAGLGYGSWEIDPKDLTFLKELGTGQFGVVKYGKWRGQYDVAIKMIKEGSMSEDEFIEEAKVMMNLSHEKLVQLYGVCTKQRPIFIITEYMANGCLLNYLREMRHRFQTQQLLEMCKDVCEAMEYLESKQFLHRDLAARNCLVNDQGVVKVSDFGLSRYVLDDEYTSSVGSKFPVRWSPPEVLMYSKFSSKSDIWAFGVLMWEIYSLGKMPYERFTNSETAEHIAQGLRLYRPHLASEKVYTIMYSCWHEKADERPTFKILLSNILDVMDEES
Method in brief: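 TMD-8 cells (1×10^6 cells/mL) treated 24 h with compound serial dilutions, then lysed in RIPA. Equal protein loads analysed by Western blot for BTK with GAPDH/β-actin as loading controls; activity binned by concentration giving 50% WT BTK degradation.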

C481S BTK protein = target: T2, C481S BTK protein (Homo sapiens, UniProt Q06187, C481S); assay: BTK protein degradation assay (Western blotting), C481S BTK; type: cell-based; details: concentration range accounting for 50% degradation of C481S BTK protein, 293T BTK MUT (C481S) cells
T2 construct: expressed in transfected cells; host or cells: 293T BTK MUT (C481S) cells
T2 sequence (Q06187 whole entry C481S): as the sequence (Q06187 whole entry) above, with C481S counted along it
Procedure: TMD-8, RAMOS, or 293T BTK MUT (C481S) cells were treated with the synthesized compounds and measured for intracellular BTK protein levels by Western blotting. The protocol of the experiment using TMD-8 cells is as follows.
The 12-well plates were treated as follows. A 10 mM stock was 1/10 diluted in series with DMSO ([…]) to form final concentrations of 10, 1, 0.1, 0.01, 0.001, and 0.0001 mM. The compounds with such concentrations were applied to cells, followed by harvesting the cells 24 hours later. For a negative control, a 1/10 dilution of DMSO in the medium (3 mL DMSO+27 mL medium) was used.
The 1-mL cell culture in each well was passed many times through a pipette and then transferred into a 1.5-mL microtube before centrifugation (500 g, 5 min, 4° C.). The supernatant was discarded and the cell pellet was washed with PBS. After centrifugation (500 g, 5 min, 4° C.) again, the supernatant was discarded and the cell pellet was taken.
A lysis buffer was prepared as follows. RIPA buffer (Biosesang, RC2038-050-00)+0.5 mM PMSF (SIGMA, P7626)+1×Protease/Phosphatase Inhibitor (Cell signaling, 5872S) was added in an amount […] per well and left for 30 minutes on ice (vortexing at 0 and 30 minutes) before sonication (5 cycles of pulse for 10 seconds and rest for 30 seconds, 70% amplification). The supernatant obtained by centrifugation (15000 g, 15 min, 4° C.) was transferred into a new microtube. Cells in each well of 96-well plates were 1/2 diluted with the RIPA buffer and incubated at 37° C. for 30 minutes with […] of a 50:1 mixture of BCA reagents A and B in BCA Protein Assay Kit (iNtRON, 21071). After being cooled for 10 minutes, the 96-well plates were measured for absorbance at 562 nm on the BioTek, SYNERGY H1 microplate reader. Samples were prepared by protein quantification based on the absorbance measurements and then boiled at 70° C. for 10 minutes. The sample buffer used in the case was prepared by mixing a NuPAGE or a Bolt 4× sample buffer (Invitrogen) and its 10× sample reducing agent depending on the gel to be used, and protein dilution was made in a RIPI buffer.
The samples were loaded in the same amount into a NuPAGE or Bolt Bis-tris 4-12% gradient gel and allowed to run therein (200 V, 35 minutes). The separated proteins were transferred onto a […] NC membrane, using Trans-blot Turbo (BIO-RAD) (1.3 A constant, 25V limit, 15 minutes). The membrane was blocked at room temperature for 1 hour with skim milk or Intercept Blocking Buffer (LI-COR, 927-60001):0.1% TBST=1:1. The membrane was incubated with Anti BTK Rabbit (1:1,000 in 5% skim milk/0.2% TBST, size: 77 kDa, Cell signaling Technology) at 4° C. overnight O/N or at room temperature for 2 hours and with Anti GAPDH Rabbit (1:10,000 in 5% BSA/0.2% TBST, size: 36 kDa, GENETEX) and Anti β-actin mouse (1:10,000 in 5% BSA/0.2% TBST, RT, size: 43 kDa, GENETEX) at room temperature for 1 or 3 hours. Then, the membrane was washed three times with 0.5% TBST for 5 minutes each time before incubation with the second antibody Anti-Rabbit IgG (1:5,000 in 5% Skim milk/TBST, CST), IRDye® 800CW Goat anti-Rabbit IgG Secondary Antibody (1:10,000 in 5% skim/TBST, RT 45 min), or IRDye® 680RD Goat anti-Mouse IgG Secondary Antibody (1:10,000 in 5% skim/TBST, RT 45 min) for 45 minutes at room temperature in a rocker. The membrane was washed five times with 0.5% TBST for 5 minutes in each time, followed by detection with LI-COR, Odyssey. In this regard, the detection proceeded, as it was, for house-keeping genes while using SuperSignal West Pico PLUS Chemiluminescent Substrate or SuperSignal West femto Maximum Sensitivity Substrate for BTK detection.
According to the concentration ranges of compounds accounting for 50% degradation of WT BTK protein and C481S BTK protein, the activities are expressed as +++(0.0001-0.01 μM), ++(0.01-1 μM), +(1-10 μM), −(>10 μM), and NT (not tested). […]

DC50 (WT BTK protein) [nM] | DC50 (C481S BTK protein) [nM] | Structure (SMILES)
10 to 1000 | > 10000 | Cc1cccc(C)c1Nc1nn(C)c2nc(Nc3ccc4c(c3)CN(C(=O)CCCCCNc3cccc5c3C(=O)N(C3CCC(=O)NC3=O)C5=O)CC4)ncc12 (centres unmarked) [Compound 1, 4-((6-(7-((3-((2,6-Dimethylphenyl)amino)-1-methyl-1H-pyrazolo[3,4-d]pyrimidin-6-yl)amino)-3,4-dihydroisoquinolin-2 (1H)-yl)-6-oxohexyl)amino)-2-(2,6-dioxopiperidin-3-yl)isoindoline-1,3-dione]
0.1 to 10 | 10 to 1000 | Cc1cccc(C)c1Nc1nn(C)c2nc(Nc3ccc4c(c3)CN(C(=O)COCCOCCNc3ccc5c(c3)C(=O)N(C3CCC(=O)NC3=O)C5=O)CC4)ncc12 (centres unmarked) [Compound 2, 5-((2-(2-(2-(7-((3-((2,6-Dimethylphenyl)amino)-1-methyl-1H-pyrazolo[3,4-d]pyrimidin-6-yl)amino)-3,4-dihydroisoquinolin-2 (1H)-yl)-2-oxoethoxy)ethoxy)ethyl)amino)-2-(2,6-dioxopiperidin-3-yl)isoindoline-1,3-dione]
0.1 to 10 | 1000 to 10000 | Cc1cccc(C)c1Nc1nn(C)c2nc(Nc3ccc4c(c3)CN(C(=O)COCCOCCNc3cccc5c3C(=O)N(C3CCC(=O)NC3=O)C5=O)CC4)ncc12 (centres unmarked) [Compound 3, 4-((2-(2-(2-(7-((3-((2,6-Dimethylphenyl)amino)-1-methyl-1H-pyrazolo[3,4-d]pyrimidin-6-yl)amino)-3,4-dihydroisoquinolin-2 (1H)-yl)-2-oxoethoxy)ethoxy)ethyl)amino)-2-(2,6-dioxopiperidin-3-yl)isoindoline-1,3-dione]
10 to 1000 | 1000 to 10000 | Cc1cccc(C)c1Nc1nn(C)c2nc(Nc3ccc4c(c3)CN(C(=O)COCCOCCNC(=O)C3CCN(c5cccc6c5C(=O)N(C5CCC(=O)NC5=O)C6=O)CC3)CC4)ncc12 (centres unmarked) [Compound 4, N-(2-(2-(2-(7-((3-((2,6-Dimethylphenyl)amino)-1-methyl-1H-pyrazolo[3,4-d]pyrimidin-6-yl)amino)-3,4-dihydroisoquinolin-2 (1H)-yl)-2-oxoethoxy)ethoxy)ethyl)-1-(2-(2,6-dioxopiperidin-3-yl)-1,3-dioxoisoindolin-4-yl)piperidine-4-carboxamide]
10 to 1000 | 10 to 1000 | Cc1cccc(C)c1Nc1nn(C)c2nc(Nc3ccc4c(c3)CN(C(=O)COCCOCCOCCOCCNC(=O)C3CCN(c5cccc6c5C(=O)N(C5CCC(=O)NC5=O)C6=O)CC3)CC4)ncc12 (centres unmarked) [Compound 5, N-(14-(7-((3-((2,6-Dimethylphenyl)amino)-1-methyl-1H-pyrazolo[3,4-d]pyrimidin-6-yl)amino)-3,4-dihydroisoquinolin-2 (1H)-yl)-14-oxo-3,6,9,12-tetraoxatetradecyl)-1-(2-(2,6-dioxopiperidin-3-yl)-1,3-dioxoisoindolin-4-yl)piperidine-4-carboxamide]
0.1 to 10 | – | Cc1cccc(C)c1Nc1nn(C)c2nc(Nc3ccc4c(c3)CN(C(=O)/C(C#N)=C/C3CCN(C(=O)CNc5ccc6c(c5)C(=O)N(C5CCC(=O)NC5=O)C6=O)CC3)CC4)ncc12 (centres unmarked) [Compound 260, (E)-2-(7-((3-((2,6-Dimethylphenyl)amino)-1-methyl-1H-pyrazolo[3,4-d]pyrimidin-6-yl)amino)-1,2,3,4-tetrahydroisoquinoline-2-carbonyl)-3-(1-((2-(2,6-dioxopiperidin-3-yl)-1,3-dioxoisoindolin-5-yl)glycyl)piperidin-4-yl)acrylonitrile]
0.1 to 10 | – | Cc1cccc(C)c1Nc1nn(C)c2nc(Nc3ccc(C4CCN(C(=O)/C(C#N)=C/C5CCN(C(=O)CNc6ccc7c(c6)C(=O)N(C6CCC(=O)NC6=O)C7=O)CC5)CC4)cc3)ncc12 (centres unmarked) [Compound 261, (E)-2-(4-(4-((3-((2,6-Dimethylphenyl)amino)-1-methyl-1H-pyrazolo[3,4-d]pyrimidin-6-yl)amino)phenyl)piperidine-1-carbonyl)-3-(1-((2-(2,6-dioxopiperidin-3-yl)-1,3-dioxoisoindolin-5-yl)glycyl)piperidin-4-yl)acrylonitrile]
0.1 to 10 | – | Cc1cccc(C)c1Nc1nn(C)c2nc(Nc3ccc(C4CCN(C(=O)C5CCN(c6ccc7c(c6)n(C)c(=O)n7C6CCC(=O)NC6=O)CC5)CC4)cc3)ncc12 (centres unmarked) [Compound 262, 3-(5-(4-(4-(4-((3-((2,6-Dimethylphenyl)amino)-1-methyl-1H-pyrazolo[3,4-d]pyrimidin-6-yl)amino)phenyl)piperidine-1-carbonyl)piperidin-1-yl)-3-methyl-2-oxo-2,3-dihydro-1H-benzo[d]imidazol-1-yl)piperidin-2,6-one]
0.1 to 10 | – | Cc1cccc(C)c1Nc1nn(C)c2nc(Nc3ccc(F)c(C4=CCN(C(=O)C5CN(c6ccc7c(c6)C(=O)N(C6CCC(=O)NC6=O)C7=O)C5)CC4)c3)ncc12 (centres unmarked) [Compound 263, 5-(3-(4-(5-((3-((2,6-Dimethylphenyl)amino)-1-methyl-1H-pyrazolo[3,4-d]pyrimidin-6-yl)amino)-2-fluorophenyl)-1,2,3,6-tetrahydropyridine-1-carbonyl)azetidin-1-yl)-2-(2,6-dioxopiperidin-3-yl)isoindoline-1,3-dione]
0.1 to 10 | – | Cc1cccc(C)c1Nc1nn(C)c2nc(Nc3ccc4c(c3)CN(C(=O)C3CCN(c5ccc6c(c5)n(C)c(=O)n6C5CCC(=O)NC5=O)CC3)CC4)ncc12 (centres unmarked) [Compound 264, 3-(5-(4-(7-((3-((2,6-Dimethylphenyl)amino)-1-methyl-1H-pyrazolo[3,4-d]pyrimidin-6-yl)amino)-1,2,3,4-tetrahydroisoquinoline-2-carbonyl)piperidin-1-yl)-3-methyl-2-oxo-2,3-dihydro-1H-benzo[d]imidazol-1-yl)piperidin-2,6-one]
0.1 to 10 | – | Cc1cccc(C)c1Nc1nn(C)c2nc(Nc3ccc(N4CCN(CC5CCN(c6ccc7c(c6)C(=O)N(C6CCC(=O)NC6=O)C7=O)CC5)CC4)nn3)ncc12 (centres unmarked) [Compound 268, 5-(4-((4-(6-((3-((2,6-dimethylphenyl)amino)-1-methyl-1H-pyrazolo[3,4-d]pyrimidin-6-yl)amino)pyridazin-3-yl)piperazin-1-yl)methyl)piperidin-1-yl)-2-(2,6-dioxopiperidin-3-yl)isoindoline-1,3-dione]
0.1 to 10 | – | Cc1cccc(C)c1Nc1nn(C)c2nc(Nc3ccc(C4CCN(CC5CCN(c6cc7c(cc6F)C(=O)N(C6CCC(=O)NC6=O)C7)CC5)CC4)cc3)ncc12 (centres unmarked) [Compound 272, 3-(5-(4-((4-(4-((3-((2,6-dimethylphenyl)amino)-1-methyl-1H-pyrazolo[3,4-d]pyrimidin-6-yl)amino)phenyl)piperidin-1-yl)methyl)piperidin-1-yl)-6-fluoro-1-oxoisoindolin-2-yl)piperidin-2,6-one]
